Test results published in ChEMBL document CHEMBL4422618, “Translational impact of novel widely pharmacological characterized mofezolac-derived COX-1 inhibitors combined with bortezomib on human multiple myeloma cell lines viability” (Eur J Med Chem, 2019).
Active and inactive are the calls of the source. The rule behind the calls is not given here.

Legend:
[1] = target: T1, Prostaglandin G/H synthase 1 (Ovis aries) (UniProt P05979); experiment: Inhibition of ovine COX1 at 50 uM using arachidonic acid as substrate by colorimetric assay relative to control
T1 sequence (whole entry): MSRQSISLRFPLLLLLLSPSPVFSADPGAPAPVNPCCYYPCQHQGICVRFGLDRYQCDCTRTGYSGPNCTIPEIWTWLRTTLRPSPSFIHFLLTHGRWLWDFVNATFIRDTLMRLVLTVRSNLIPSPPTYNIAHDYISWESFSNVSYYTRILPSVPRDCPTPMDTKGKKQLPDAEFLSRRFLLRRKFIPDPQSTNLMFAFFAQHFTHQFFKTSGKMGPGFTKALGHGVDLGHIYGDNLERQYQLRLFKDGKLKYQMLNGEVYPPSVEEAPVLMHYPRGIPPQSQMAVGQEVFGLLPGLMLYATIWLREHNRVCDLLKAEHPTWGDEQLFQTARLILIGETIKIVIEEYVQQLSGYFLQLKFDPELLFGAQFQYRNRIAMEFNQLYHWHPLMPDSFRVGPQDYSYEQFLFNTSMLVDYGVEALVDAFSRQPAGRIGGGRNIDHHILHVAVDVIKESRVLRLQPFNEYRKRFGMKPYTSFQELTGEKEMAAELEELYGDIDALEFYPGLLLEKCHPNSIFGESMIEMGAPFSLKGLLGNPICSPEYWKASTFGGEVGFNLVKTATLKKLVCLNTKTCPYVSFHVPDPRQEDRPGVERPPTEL

[2] = target: T2, Prostaglandin G/H synthase 1 (Ovis aries, UniProt P05979); experiment: Inhibition of ovine COX1 using arachidonic acid as substrate by colorimetric assay
T2 sequence (P05979 whole entry): T1 sequence (whole entry)

[3] = target: T3, Prostaglandin G/H synthase 2 (Homo sapiens, UniProt P35354); experiment: Inhibition of human COX2 using arachidonic acid as substrate by colorimetric assay
T3 sequence (P35354 whole entry): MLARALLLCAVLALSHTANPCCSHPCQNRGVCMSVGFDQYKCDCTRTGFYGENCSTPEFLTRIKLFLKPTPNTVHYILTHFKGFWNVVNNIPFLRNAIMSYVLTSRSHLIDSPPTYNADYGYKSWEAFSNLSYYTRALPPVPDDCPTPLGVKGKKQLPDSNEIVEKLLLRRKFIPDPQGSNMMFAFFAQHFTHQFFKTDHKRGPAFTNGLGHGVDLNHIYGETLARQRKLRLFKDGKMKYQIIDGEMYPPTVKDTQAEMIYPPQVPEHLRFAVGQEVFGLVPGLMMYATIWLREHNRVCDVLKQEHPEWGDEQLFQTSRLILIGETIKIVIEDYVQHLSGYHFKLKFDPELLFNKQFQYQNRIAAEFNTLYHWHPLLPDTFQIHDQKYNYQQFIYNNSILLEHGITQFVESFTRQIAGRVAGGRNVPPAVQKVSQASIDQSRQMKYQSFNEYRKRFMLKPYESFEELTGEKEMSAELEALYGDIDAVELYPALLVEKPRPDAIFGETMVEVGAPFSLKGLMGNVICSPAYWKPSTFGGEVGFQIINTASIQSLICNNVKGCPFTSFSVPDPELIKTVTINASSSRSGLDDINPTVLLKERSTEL

[4] = target: T4, Prostaglandin G/H synthase 2 (Homo sapiens) (UniProt P35354); experiment: Inhibition of human COX2 at 50 uM using arachidonic acid as substrate by colorimetric assay relative to control
T4 sequence (whole entry): T3 sequence (P35354 whole entry)

[5] = Selectivity index, ratio of IC50 for human COX2 to IC50 for ovine COX1
[6] = target: T1, Prostaglandin G/H synthase 1 (Ovis aries); experiment: Inhibition of ovine COX1 at 10 uM using arachidonic acid as substrate by colorimetric assay relative to control
[7] = Genotoxicity in Escherichia coli PQ35 at 500 uM after overnight incubation by SOS chromotest; assay type: toxicity
[8] = Genotoxicity in Escherichia coli PQ37 at 500 uM after overnight incubation by SOS chromotest; assay type: toxicity
RPMI-8226 [9] = experiment: Cell cycle arrest in human RPMI8226 cells assessed as accumulation at G0/G1 phase at 3 nM after 48 hrs by propidium iodide/RNase staining based flow cytometric method; assay type: functional
NCI-H929 [10] = experiment: Cell cycle arrest in human NCI-H929 cells assessed as accumulation at G0/G1 phase at 2 nM after 48 hrs by propidium iodide/RNase staining based flow cytometric method relative to control; assay type: functional
RPMI-8226 [11] = experiment: Cytotoxicity against human RPMI8226 cells assessed as reduction in cell viability at 2 nM after 48 hrs by CCK8 assay; assay type: functional, cell-based
RPMI-8226 [12] = experiment: Cell cycle arrest in human RPMI8226 cells assessed as accumulation at S phase at 3 nM after 48 hrs by propidium iodide/RNase staining based flow cytometric method; assay type: functional
NCI-H929 [13] = experiment: Cell cycle arrest in human NCI-H929 cells assessed as accumulation at S phase at 2 nM after 48 hrs by propidium iodide/RNase staining based flow cytometric method relative to control; assay type: functional
NCI-H929 [14] = experiment: Induction of apoptosis in human NCI-H929 cells assessed as viable cells at 2 nM after 48 hrs by Annexin-V/propidium iodide staining based flow cytometric method (reference value: 82.6%); assay type: functional; conditions: NCI-H929, 48 h, read-out: Activity
NCI-H929 [15] = experiment: Induction of apoptosis in human NCI-H929 cells assessed as early apoptotic cells at 2 nM after 48 hrs by Annexin-V/propidium iodide staining based flow cytometric method (reference value: 17.1%); assay type: functional
RPMI-8226 [16] = experiment: Cytotoxicity against human RPMI8226 cells assessed as reduction in cell viability at 3 nM after 48 hrs by CCK8 assay relative to control; assay type: functional
RPMI-8226 [17] = experiment: Induction of apoptosis in human RPMI8226 cells assessed as early apoptotic cells at 3 nM after 48 hrs by Annexin-V/propidium iodide staining based flow cytometric method (reference value: 1.05%); assay type: functional
RPMI-8226 [18] = experiment: Induction of apoptosis in human RPMI8226 cells assessed as viable cells at 3 nM after 48 hrs by Annexin-V/propidium iodide staining based flow cytometric method (reference value: 98.7%); assay type: functional; conditions: RPMI-8226, 48 h, read-out: Activity
RPMI-8226 [19] = experiment: Induction of apoptosis in human RPMI8226 cells assessed as late apoptotic cells at 3 nM after 48 hrs by Annexin-V/propidium iodide staining based flow cytometric method (reference value: 0.21%); assay type: functional
RPMI-8226 [20] = experiment: Induction of apoptosis in human RPMI8226 cells assessed as necrotic cells at 3 nM after 48 hrs by Annexin-V/propidium iodide staining based flow cytometric method (reference value: 0.090%); assay type: functional
NCI-H929 [21] = experiment: Induction of apoptosis in human NCI-H929 cells assessed as necrotic cells at 2 nM after 48 hrs by Annexin-V/propidium iodide staining based flow cytometric method (reference value: 0.0034%); assay type: functional
RPMI-8226 [22] = experiment: Cytotoxicity against human RPMI8226 cells assessed as reduction in cell viability at 2 nM after 48 hrs by CCK8 assay relative to control; assay type: functional, cell-based
NCI-H929 [23] = experiment: Induction of apoptosis in human NCI-H929 cells assessed as late apoptotic cells at 2 nM after 48 hrs by Annexin-V/propidium iodide staining based flow cytometric method (reference value: 0.23%); assay type: functional
Plasma [24] = experiment: Anticoagulant activity in human platelet poor plasma assessed as activated partial thromboplastin time at 100 uM incubated for 15 mins at room temperature and subsequent incubation for 2 mins at 37 degreeC followed by cephalin addition and measured after 2 mins for every secs in presence of CaCl2; assay type: functional
Plasma [25] = experiment: Anticoagulant activity in human platelet poor plasma assessed as prothrombin time at 100 uM incubated for 15 mins at room temperature and subsequent incubation for 2 mins at 37 degreeC followed by PBS addition and measured after 3 mins for every secs in presence of calcium thromboplastin; assay type: functional

Question: Which results are given for `COc1ccc(-c2noc(N)c2-c2ccc(OC)cc2)cc1`?
Answer: inhibition [1]: 89%; IC50 [2]: 8.3 µM; IC50 [3]: > 50 µM

Question: With `COc1ccc(-c2noc(CF)c2-c2ccc(OC)cc2)cc1` as the compound, how does the inhibition [1] read?
Answer: 100%

Question: And the IC50 [2]?
Answer: 0.35 µM

Question: What about the IC50 [3] of the same compound?
Answer: 0.3 µM

Question: And the inhibition [4]?
Answer: 85%

Question: What does the source list for `COc1ccc(-c2c(-c3ccc(F)cc3)noc2N)cc1`?
Answer: inhibition [1]: 83%; IC50 [2]: 13 µM; IC50 [3]: > 50 µM

Question: With `Nc1onc(-c2ccc([N+](=O)[O-])cc2)c1-c1ccc(F)cc1` as the compound, how does the inhibition [1] read?
Answer: 71%

Question: And the IC50 [2]?
Answer: 12 µM

Question: And the IC50 [3]?
Answer: > 50 µM

Question: With `COc1ccc(-c2noc(C)c2-c2ccc(OC)cc2)cc1` as the compound, how does the Ratio IC50 [5] read?
Answer: 4.6

Question: What about the IC50 [3] of the same compound?
Answer: 0.35 µM

Question: With `COc1ccc(-c2c(-c3ccc(N)cc3)noc2CC(=O)O)cc1` as the compound, how does the inhibition [1] read?
Answer: 33%

Question: And the IC50 [2]?
Answer: > 50 µM

Question: What about the IC50 [3] of the same compound?
Answer: > 50 µM

Question: What about the inhibition [4] of the same compound?
Answer: 42%

Question: Which results are given for `CS(=O)(=O)c1ccc(-c2noc(N)c2-c2ccc(F)cc2)cc1`?
Answer: IC50 [2]: > 50 µM; IC50 [3]: > 50 µM

Question: For `COc1ccc(-c2c(-c3ccc(F)cc3)noc2C)cc1`, which inhibition [1] is on record?
Answer: 94%

Question: And the IC50 [2]?
Answer: 3 µM

Question: And the IC50 [3]?
Answer: > 50 µM

Question: What does the source list for `COc1ccc(-c2noc(CBr)c2-c2ccc(OC)cc2)cc1`?
Answer: inhibition [1]: 93%; IC50 [2]: 0.1 µM; IC50 [3]: 0.18 µM; inhibition [4]: 63%

Question: Which results are given for `Cc1onc(-c2ccc([N+](=O)[O-])cc2)c1-c1ccc(F)cc1`?
Answer: IC50 [2]: > 50 µM; IC50 [3]: > 50 µM

Question: Which inhibition [1] does the source give for `Cc1onc(-c2ccc(S(C)(=O)=O)cc2)c1-c1ccc(F)cc1` here?
Answer: 24%

Question: And the IC50 [2]?
Answer: > 50 µM

Question: And the IC50 [3]?
Answer: 0.07 µM

Question: What about the inhibition [4] of the same compound?
Answer: 52%

Question: Which results are given for `COc1ccc(-c2c(-c3ccc(N)cc3)noc2C)cc1`?
Answer: inhibition [1]: 53%; IC50 [2]: 23 µM; IC50 [3]: > 50 µM

Question: What does the source list for `COc1ccc(-c2c(-c3ccc([N+](=O)[O-])cc3)noc2C)cc1`?
Answer: IC50 [3]: > 50 µM; inhibition [6]: 36%

Question: With `COc1ccc(-c2c(-c3ccc(NC(C)=O)cc3)noc2CC(=O)O)cc1` as the compound, how does the inhibition [1] read?
Answer: 79%

Question: What about the IC50 [2] of the same compound?
Answer: 12 µM

Question: What about the IC50 [3] of the same compound?
Answer: > 50 µM

Question: Which inhibition [1] does the source give for `COc1ccc(-c2c(-c3ccc(F)cc3)noc2CC(=O)O)cc1` here?
Answer: 92%

Question: And the IC50 [2]?
Answer: 7.5 µM

Question: What about the IC50 [3] of the same compound?
Answer: > 50 µM

Question: For `COc1ccc(-c2noc(CCO)c2-c2ccc(OC)cc2)cc1`, which inhibition [1] is on record?
Answer: 100%

Question: What about the Ratio IC50 [5] of the same compound?
Answer: 1.6

Question: And the IC50 [2]?
Answer: 0.12 µM

Question: And the IC50 [3]?
Answer: 0.19 µM

Question: What about the inhibition [4] of the same compound?
Answer: 82%

Question: With `O=[N+]([O-])c1cc[n+]([O-])c2ccccc12` [4-NITROQUINOLINE-1-OXIDE] as the compound, how does the Activity [7] read?
Answer: Toxic

Question: What about the Activity [8] of the same compound?
Answer: Toxic

Question: Which Activity (RPMI-8226 [9]) does the source give for `CC(C)C[C@H](NC(=O)[C@H](Cc1ccccc1)NC(=O)c1cnccn1)B(O)O` [BORTEZOMIB] here?
Answer: inactive

Question: And the Activity (NCI-H929 [10])?
Answer: 10%

Question: And the Activity (RPMI-8226 [11])?
Answer: Active

Question: And the Activity (RPMI-8226 [12])?
Answer: inactive

Question: What about the Activity (NCI-H929 [13]) of the same compound?
Answer: 10%

Question: And the viability at 0.002 µM (NCI-H929 [14])?
Answer: 51.1%

Question: And the Activity (NCI-H929 [15])?
Answer: 48.7%

Question: What about the Activity (RPMI-8226 [16]) of the same compound?
Answer: 53%

Question: And the Activity (RPMI-8226 [17])?
Answer: 8.81%

Question: What about the viability at 0.003 µM (RPMI-8226 [18]) of the same compound?
Answer: 91.1%

Question: What about the Activity (RPMI-8226 [19]) of the same compound?
Answer: 0.11%

Question: And the Activity (RPMI-8226 [20])?
Answer: 0.0918%

Question: What about the Activity (NCI-H929 [21]) of the same compound?
Answer: 0.033%

Question: And the Activity (RPMI-8226 [22])?
Answer: Active

Question: And the Activity (NCI-H929 [23])?
Answer: 0.14%

Question: With `O=C(NC[C@H]1CN(c2ccc(N3CCOCC3=O)cc2)C(=O)O1)c1ccc(Cl)s1` [RIVAROXABAN] as the compound, how does the APTT (Plasma [24]) read?
Answer: 300 s

Question: And the PT (Plasma [25])?
Answer: 300 s
